Here are results for 65 compounds from ChEMBL document CHEMBL1157539, “Thousands of chemical starting points for antimalarial lead identification” (Nature, 2010).

For the experiment, the system named is Plasmodium falciparum. The experiment is described as follows: GSK_TCMDC: Inhibition of Plasmodium falciparum 3D7 in whole erythrocytes, using parasite LDH activity as an index of growth. To be noted: Plasmodium falciparum, 3D7. The class given is functional, organism-based.
For the compound `Nc1nc(N)c2c(ccc3[nH]ccc32)n1`, the XC50 is 1080 nM.
On to `Fc1cccc(Nc2nc(NCc3ccc4ccsc4c3)nc(Nc3cccc(F)c3)n2)c1`, for which the XC50 is 1080 nM.
For `FC(F)(F)c1ccc(NC(=S)N2CCC(CCN3CCC(c4c[nH]c5ccccc45)CC3)CC2)cc1`, the XC50 worked out at 885 nM.
`O=[N+]([O-])c1ccc(C(O)CNCCc2ccccc2)cc1OCc1ccccc1` (stereo not given): the XC50 is 912 nM.
`Brc1cc2c(cc1C=NNc1nc(=Nc3ccccc3)[nH]c(=Nc3ccccc3)[nH]1)OCO2`: the XC50 was 798 nM.
The compound `O=C(O)CCSSc1cccc[n+]1[O-]` came in with an XC50 of 808 nM.
Consider `COc1ccc(Cc2cnc3nc(N)nc(N)c3c2C)cc1`, for which the XC50 was 29.1 nM.
In the case of `Cc1cc2[nH]c(-c3ccc(C(=O)NCCCN4CCN(c5cccc(Cl)c5)CC4)s3)nc2cc1Cl`, the XC50 was 653 nM.
In turn, `Cn1cncc1C(=O)NC1CCN(c2ccnc(Nc3ccc(F)cc3)n2)C1` (stereo not given) gave an XC50 of 832 nM.
The compound `Oc1ccc(-c2ccccc2)cc1CNC1CCCCC1` displayed an XC50 of 497 nM.
Under `Cc1ccc(NC(=O)c2cnc(N3CCN(c4ccncc4)CC3)c(Cl)c2)cc1` stands 965 nM; under `CCCCCCN1CCCN(Cc2ccc(C(=O)Nc3ccc(CCC)cc3)cc2)CC1`, 661 nM; under `CCCCCCCCc1c(C)nc(C)c(Br)c1O`, 824 nM.
`O=C(Nc1ccc(-c2nc3ccccc3[nH]2)cc1)c1ccc(S(=O)(=O)N2CCc3ccccc32)cc1` displayed an XC50 of 741 nM.
For the compound `O=C(C1CCCC1)N1CCOC(CCN2CCC(c3ccccc3)CC2)(c2ccc(Cl)c(Cl)c2)C1` (stereo not given), the XC50 was determined as 937 nM.
Compound `c1cc(CNCC2CCN(CC3CCCCC3)CC2)cc(-n2ccnc2)c1` had an XC50 of 545 nM.
As for `O=C(NC1CCN(CCC(NC(=O)c2ccccc2)c2ccc(Cl)c(Cl)c2)CC1)c1ccc(Cl)cc1` (stereo not given), the XC50 was determined as 1070 nM.
For `Cn1nccc1C(=O)NCCNCc1ccc(-c2cccc(-c3nc4cc(F)ccc4[nH]3)c2)cc1`, the XC50 stood at 218 nM.
The compound `C=CCc1cccc(C)c1OCCCON1C(=N)N=C(N)NC1(C)C` yielded an XC50 of 3.2 nM.
Regarding `Cc1cc(NCC(c2ccccc2)c2ccccc2)nc(NCc2ccc(C(F)(F)F)cc2)n1`, the XC50 came out at 246 nM.
Under `O=C(Nc1cccc(CN2CCCN(Cc3ccc(O)cc3)CC2)c1)c1cccc(F)c1` stands 896 nM.
Under `CCCCCCNCc1c(O)ccc2c(CNCCCCCC)c(O)ccc12` stands 130 nM; under `CCc1cn2c3c(cc(C(=O)N[C@@H](Cc4ccccc4)[C@H](O)CNC4CCOCC4)cc13)N(C)S(=O)(=O)C2`, 87.7 nM.
`C=CCNc1cc(-c2ccccn2)nc(-c2ccccn2)n1` displayed an XC50 of 472 nM.
Regarding `N#Cc1cccc(NC(=O)Nc2ccc3c(c2)CCN(C2CCC2)CC3)c1`, the XC50 was 843 nM.
Under `COc1ccc2c(c1)CCCC2NCCCCNC(=O)c1ccc(NC(=O)c2ccc(Cl)cc2)cc1` (stereo not given) stands 381 nM; under `COc1cc(Cc2cnc(N)nc2N)cc(OC(C)C)c1OC`, 1040 nM.
In the case of `CN(C)c1nc2cc(-n3cnc4cc(-c5ccc(Cl)cc5)sc4c3=O)ccc2n1CCCN1CCCCC1`, the XC50 stood at 845 nM.
As for `Cc1cc(O)c(CN(C)Cc2ccc3c(c2)OCCO3)cc1C(C)C`, the XC50 was 672 nM.
Turning to `CN(C)CCn1c(N)c(-c2nc3ccccc3s2)c2nc(C#N)c(C#N)nc21`, the XC50 came to 1010 nM.
Under `COc1ccc(CN2CCC(CNCCc3ccccc3Cl)CC2)cc1` stands 1110 nM.
As for `CC1(C)NC(N)=NC(=N)N1OCCCCCCOc1ccc(Cl)c2ccccc12`, the XC50 was 3.2 nM.
In turn, `COc1ccc(NC(=O)CCNc2cc(C)nc(NCCc3ccccc3)n2)cc1` returned an XC50 of 1160 nM.
Take `Fc1cccc(COc2ccc(-n3ccc4c(NCCCn5ccnc5)ncnc43)cc2Cl)n1`: the XC50 is 1030 nM.
As for `COc1cc2nc(N3CCC(CNC(=O)c4ccc(-c5ccc(Cl)cc5)cc4)CC3)nc(N)c2cc1OC`, the XC50 is 147 nM.
Consider `O=[N+]([O-])c1cccc(CNCC2CCN(CC3CCCCC3)CC2)c1`, for which the XC50 worked out at 1290 nM.
With `O=S(=O)(c1cccc2cccnc12)N1CCN(C2CCCCC2)CC1`, the XC50 came to 765 nM.
Regarding `CC(Cc1ccc(OCCN2CCN(c3cccc(Cl)c3)CC2)cc1)NCC(O)c1cccc(Cl)c1` (stereo not given), the XC50 came to 1210 nM.
`Cc1cc(C(=O)CN2C(=O)NC3(CCOc4ccccc43)C2=O)c(C)n1Cc1ccco1` (stereo not given) had an XC50 of 605 nM.
As for `c1ccc2c(c1)CN(CC1CC1)CC1(CCN(Cc3c[nH]c4cnccc34)CC1)O2`, the XC50 is 900 nM.
For `Cc1cc(F)ccc1C1CCN(CCCCNC(=O)c2ccc(NC(=O)c3ccc(Cl)cc3)cc2)CC1`, the XC50 stood at 692 nM.
As for `CC(CCc1ccc(OCc2ccccc2)cc1)NCC(O)c1ccccc1` (stereo not given), the XC50 turned out to be 1100 nM.
As to `O=C(Nc1ccccc1O)c1ccc(S(=O)(=O)c2ccc(Cl)cc2)cc1`, the XC50 was found to be 1350 nM.
In turn, `NC(=O)c1ccccc1OCC(=O)Nc1ccc(-c2cccc(-c3nc4cc(C(F)(F)F)ccc4[nH]3)c2)cc1` had an XC50 of 978 nM.
Next, `CCOC(=O)CCCc1cc(NC2CCN(C)CC2)nc(Nc2ccc(C)cc2)n1`: 263 nM; `Cc1cc(N2CCCN(C)CC2)nc(Nc2ccc(Cl)cc2)n1`: 795 nM.
Next, `COCCNCc1ncsc1-c1ccc2c(Nc3ccc(Oc4ccccc4)cc3)ccnc2c1`: 905 nM; `COc1ccc2nccc([C@@H](O)CN3CCC(NC(=O)[C@@H]4Cc5ccccc5CN4C(=O)OC(C)(C)C)CC3)c2c1`: 892 nM; `COc1ccc2nccc(NC(=O)OC3CCC(NCc4ccc5c(n4)NC(=O)CS5)CC3)c2c1` (stereo not given): 924 nM.
Under `CC[C@H](C)CNC(=O)c1ccnc(-c2cccc(CN3CCC(N4CCCC4)CC3)c2)c1` stands 851 nM; under `CC(C)c1ccc(C(NC(=O)C2CCCCC2)c2ccc3cccnc3c2O)cc1` (stereo not given), 603 nM.
As for `NCC1CCCN1Cc1cccc(-c2cccc(-c3nc4cc(F)ccc4[nH]3)c2)c1` (stereo not given), the XC50 worked out at 813 nM.
For `COc1cc2nc(Nc3ccc4c(cnn4Cc4ccccc4)c3)nc(Nc3ccc4c(cnn4Cc4ccccc4)c3)c2cc1OC`, the XC50 amounted to 194 nM.
In the case of `Cc1cccc2nc(-c3ccc(-c4ccc(NC(=O)C(=O)c5cccn5C)cc4)cc3)[nH]c12`, the XC50 was 819 nM.
Take `CN1CCC(Oc2ccc(CN3CC[C@H](NC(=O)c4ccc(Cl)c(F)c4)C3)c3ccccc23)C1` (stereo not given in full): the XC50 came out at 738 nM.
For the compound `OC(CNc1ccnc(Nc2cccc(Cl)c2)n1)c1cccc(C(F)(F)F)c1` (stereo not given), the XC50 was 513 nM.
For `O=S1(=O)NCc2ccc(Nc3nccc(Nc4ccc5c(cnn5Cc5ccccc5)c4)n3)cc21`, the XC50 came out at 750 nM.
For the compound `Cn1nc(C(=O)N2CCC(c3[nH]ncc3Cc3ccccc3)CC2)c2ccccc2c1=O`, the XC50 was 304 nM.
`COc1ccc(CN2CCC(CNCCc3c(Cl)cccc3Cl)CC2)cc1`: the XC50 was 435 nM.
Compound `CC(=O)N1N=C(c2ccc(F)cc2)Sc2c1nc(C1CCCCC1)n2C(C)=O` displayed an XC50 of 891 nM.
Turning to `Cc1noc(C)c1-c1cccc(CNCc2cccc(-c3ccc(-c4nc5ccccc5[nH]4)s3)c2)c1`, the XC50 worked out at 204 nM.
Regarding `O=C(C1COc2ccccc2O1)N(CCCn1ccnc1)Cc1csc(-c2ccc(CNCc3ccccc3)cc2)n1` (stereo not given), the XC50 was found to be 619 nM.
Next, `O=C(NC1CCC(N2CCC(c3ccccc3C(F)(F)F)CC2)CC1)c1cc2ccccc2[nH]1` (stereo not given): 521 nM; `Cc1cc2cc(-c3ccc(CN)cc3)ccc2nc1N`: 1130 nM.
As to `CCc1cc2c(Sc3nnc(N)s3)ncnc2s1`, the XC50 came to 659 nM.
